Assay results from patent US8518934B2, “Oxycarbamoyl compounds and the use thereof” (Shonogi & Co., Ltd., priority 2008, dated 2013).

Target: T1, N-type calcium channel (NTCC) (Homo sapiens, UniProt Q00975)
T1 construct: endogenous in cells; host or cells: differentiated IMR32 cells (ATCC)
Assay: FLIPR calcium mobilization assay for N-type calcium channel
Assay type: cell-based
Conditions: calcium mobilization in vitro assay; differentiated IMR32 cells, 90 mM KCl, 5 μM nitrendipine, Fluo-4
Procedure: Cell maintenance and differentiation. Unless noted otherwise, cell culture reagents were purchased from Mediatech of Herndon, Md. IMR32 cells (American Type Culture Collection, ATCC, Manassas, Va.) were routinely cultured in growth medium consisting of minimum essential medium containing 10% fetal bovine serum (FBS, Hyclone, Logan, Utah), 100 U/mL penicillin, 100 μg/mL streptomycin, 2 mM L-glutamine, 1 mM sodium pyruvate, and 1×MEM non-essential amino acids. 80-90% confluent flasks of cells were differentiated using the following differentiation medium: Growth medium plus 1 mM dibutyryl cyclic AMP (Sigma, St. Louis, Mo.), and 2.5 μM bromodeoxyuridine (Sigma). Cells were differentiated for 8 days by replacing differentiation medium every 2-3 days. A7r5 (ATCC) cells were maintained and routinely cultured in A7r5 growth medium consisting of Dulbecco's Modified Eagles Medium containing 10% FBS, 100 U/mL penicillin, 100 μg/mL streptomycin, 4 mM L-glutamine, and 0.15% sodium bicarbonate. 80-90% confluent flasks of cells were differentiated using the following differentiation medium: A7r5 Growth Medium plus 1 mM dibutyryl cyclic AMP (Sigma). Cells were differentiated for 8 days by replacing differentiation medium every 2-3 days.
Recombinant human embryonal kidney cells (HEK293, ATCC) stably transfected with either N-type calcium channel (NTCC) subunits (α1b, α2δ, and β3) or L-type calcium channel (LTCC) subunits (α1c, α2δ, and β1) were routinely cultured in growth medium consisting of Dulbecco's Modified Eagles Medium containing 10% FBS, 100 U/mL penicillin, 100 μg/mL streptomycin, 4 mM L-glutamine, 500 μg/mL geneticin (G418), 20 μg/mL Blasticidin S (InVivogen, San Diego, Calif.) and 500 μg/mL zeocin (InVivogen). FLIPR Calcium Mobilization Assay for N-type Calcium Channel. One day prior to performing this assay, differentiated IMR32 cells were treated with lx CellStripper, and seeded on poly-D-lysine-coated 96-well clear-bottom black plates (Becton Dickinson, Franklin Lakes, N.J.) at 200,000 cells/well. On the day of the assay, the cell plates were washed with IMR32 buffer (127 mM NaCl, 1 mM KCl, 2 mM MgCl2, 700 μM NaH2PO4, 5 mM CaCl2, 5 mM NaHCO3, 8 mM HEPES, 10 mM glucose, pH 7.4), then pre-stimulated with KCl and loaded as follows: 0.05 mL of IMR32 buffer, 0.05 mL of each compound tested diluted in IMR32 buffer containing 20 μM nitrendipine (Sigma), and 0.1 mL KCl dissolved in IMR32 buffer, plus Fluo-4 were added (3 μM final concentration, Molecular Probes, Eugene, Oreg.). Final test compound concentrations ranged from about 846 pM to about 17 μM, final nitrendipine concentration was 5 μM, and final KCl concentration was 90 mM. After 1 hour, the cells were washed twice with 0.05 mL of each compound tested in nitrendipine-containing IMR32 buffer (no KCl or Fluo-4), and then replaced with 0.1 mL of each compound tested in nitrendipine-containing IMR32 buffer. Plates were then transferred to a Fluorimetric Imaging Plate Reader (FLIPR^96, Molecular Devices, Inc., Sunnyvale, Calif.) for assay. The FLIPR measured basal Fluo-4 fluorescence for 315 seconds (i.e., 5 minutes and 15 seconds), then added 0.1 mL KCl agonist dissolved in IMR32 buffer and measured fluorescence for another 45 seconds. Final test compound concentrations on the cells after FLIPR read ranged from about 846 pM to about 17 μM, final nitrendipine concentration was 5 μM, and final KCl concentration was 90 mM. Data were collected over the entire time course and analyzed using Excel, Graph Pad Prism (version 3.02, Graph Pad, San Diego, Calif.), or an in-house non-linear regression analysis software.

T1 sequence (Q00975 whole entry): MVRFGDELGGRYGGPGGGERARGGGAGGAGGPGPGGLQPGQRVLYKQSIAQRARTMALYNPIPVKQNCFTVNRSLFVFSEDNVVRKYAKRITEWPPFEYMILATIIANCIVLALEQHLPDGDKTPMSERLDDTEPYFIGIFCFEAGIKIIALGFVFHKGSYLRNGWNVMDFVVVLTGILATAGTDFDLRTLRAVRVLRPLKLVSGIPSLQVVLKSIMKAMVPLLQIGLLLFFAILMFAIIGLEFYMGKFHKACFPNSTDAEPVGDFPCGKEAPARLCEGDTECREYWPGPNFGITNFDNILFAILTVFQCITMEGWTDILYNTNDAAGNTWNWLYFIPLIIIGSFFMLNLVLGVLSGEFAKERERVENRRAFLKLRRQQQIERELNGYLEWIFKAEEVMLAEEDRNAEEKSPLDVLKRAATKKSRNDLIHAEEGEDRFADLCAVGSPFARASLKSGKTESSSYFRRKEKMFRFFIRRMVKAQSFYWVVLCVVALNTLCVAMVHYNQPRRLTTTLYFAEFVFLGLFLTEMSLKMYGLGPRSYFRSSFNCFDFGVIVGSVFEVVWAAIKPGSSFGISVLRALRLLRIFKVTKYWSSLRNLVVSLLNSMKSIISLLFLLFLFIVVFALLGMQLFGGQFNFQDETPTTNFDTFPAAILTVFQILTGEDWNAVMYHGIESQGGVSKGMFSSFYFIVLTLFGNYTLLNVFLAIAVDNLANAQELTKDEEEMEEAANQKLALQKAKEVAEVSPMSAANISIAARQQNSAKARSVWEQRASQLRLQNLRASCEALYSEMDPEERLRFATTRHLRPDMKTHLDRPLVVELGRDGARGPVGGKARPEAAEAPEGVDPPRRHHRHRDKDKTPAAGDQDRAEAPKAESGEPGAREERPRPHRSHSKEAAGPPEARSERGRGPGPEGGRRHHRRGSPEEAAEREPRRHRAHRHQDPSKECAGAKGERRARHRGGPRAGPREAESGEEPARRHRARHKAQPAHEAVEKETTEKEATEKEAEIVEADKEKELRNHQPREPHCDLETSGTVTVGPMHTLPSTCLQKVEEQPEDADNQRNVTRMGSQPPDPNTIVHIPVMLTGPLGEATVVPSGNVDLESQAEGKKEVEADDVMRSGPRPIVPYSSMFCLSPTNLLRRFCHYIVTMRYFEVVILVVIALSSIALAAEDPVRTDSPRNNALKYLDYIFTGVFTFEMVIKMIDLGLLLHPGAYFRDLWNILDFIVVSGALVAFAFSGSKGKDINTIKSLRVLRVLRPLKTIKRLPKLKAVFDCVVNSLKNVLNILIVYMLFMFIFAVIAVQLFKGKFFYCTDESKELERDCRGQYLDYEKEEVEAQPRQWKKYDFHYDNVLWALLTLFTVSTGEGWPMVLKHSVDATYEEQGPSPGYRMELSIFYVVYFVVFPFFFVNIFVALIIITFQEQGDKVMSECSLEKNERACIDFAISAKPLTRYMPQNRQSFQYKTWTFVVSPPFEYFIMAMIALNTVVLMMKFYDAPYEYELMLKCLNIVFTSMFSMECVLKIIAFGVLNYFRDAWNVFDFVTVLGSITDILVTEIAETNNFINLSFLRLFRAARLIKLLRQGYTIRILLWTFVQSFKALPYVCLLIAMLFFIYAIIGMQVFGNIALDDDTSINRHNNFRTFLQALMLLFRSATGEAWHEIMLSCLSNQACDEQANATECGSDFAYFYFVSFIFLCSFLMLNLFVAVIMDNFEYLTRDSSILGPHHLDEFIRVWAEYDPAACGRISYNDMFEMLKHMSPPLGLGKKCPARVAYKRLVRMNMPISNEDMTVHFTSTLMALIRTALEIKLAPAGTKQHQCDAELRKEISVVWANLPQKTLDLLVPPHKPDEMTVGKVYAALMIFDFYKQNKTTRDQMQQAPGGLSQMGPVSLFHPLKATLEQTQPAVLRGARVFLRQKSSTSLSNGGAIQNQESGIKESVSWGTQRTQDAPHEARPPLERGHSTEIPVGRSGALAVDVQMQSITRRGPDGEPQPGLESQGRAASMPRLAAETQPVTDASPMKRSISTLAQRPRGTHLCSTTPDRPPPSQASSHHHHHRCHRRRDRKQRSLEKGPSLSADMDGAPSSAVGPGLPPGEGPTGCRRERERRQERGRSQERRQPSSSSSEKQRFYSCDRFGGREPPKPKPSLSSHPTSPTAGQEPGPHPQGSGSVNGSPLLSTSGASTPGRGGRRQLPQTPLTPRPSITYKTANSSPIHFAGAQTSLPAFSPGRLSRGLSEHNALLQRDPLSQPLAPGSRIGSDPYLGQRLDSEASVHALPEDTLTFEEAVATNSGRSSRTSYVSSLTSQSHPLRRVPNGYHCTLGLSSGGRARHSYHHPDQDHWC
T1 sequence (P54289 25-956 partner limits assumed): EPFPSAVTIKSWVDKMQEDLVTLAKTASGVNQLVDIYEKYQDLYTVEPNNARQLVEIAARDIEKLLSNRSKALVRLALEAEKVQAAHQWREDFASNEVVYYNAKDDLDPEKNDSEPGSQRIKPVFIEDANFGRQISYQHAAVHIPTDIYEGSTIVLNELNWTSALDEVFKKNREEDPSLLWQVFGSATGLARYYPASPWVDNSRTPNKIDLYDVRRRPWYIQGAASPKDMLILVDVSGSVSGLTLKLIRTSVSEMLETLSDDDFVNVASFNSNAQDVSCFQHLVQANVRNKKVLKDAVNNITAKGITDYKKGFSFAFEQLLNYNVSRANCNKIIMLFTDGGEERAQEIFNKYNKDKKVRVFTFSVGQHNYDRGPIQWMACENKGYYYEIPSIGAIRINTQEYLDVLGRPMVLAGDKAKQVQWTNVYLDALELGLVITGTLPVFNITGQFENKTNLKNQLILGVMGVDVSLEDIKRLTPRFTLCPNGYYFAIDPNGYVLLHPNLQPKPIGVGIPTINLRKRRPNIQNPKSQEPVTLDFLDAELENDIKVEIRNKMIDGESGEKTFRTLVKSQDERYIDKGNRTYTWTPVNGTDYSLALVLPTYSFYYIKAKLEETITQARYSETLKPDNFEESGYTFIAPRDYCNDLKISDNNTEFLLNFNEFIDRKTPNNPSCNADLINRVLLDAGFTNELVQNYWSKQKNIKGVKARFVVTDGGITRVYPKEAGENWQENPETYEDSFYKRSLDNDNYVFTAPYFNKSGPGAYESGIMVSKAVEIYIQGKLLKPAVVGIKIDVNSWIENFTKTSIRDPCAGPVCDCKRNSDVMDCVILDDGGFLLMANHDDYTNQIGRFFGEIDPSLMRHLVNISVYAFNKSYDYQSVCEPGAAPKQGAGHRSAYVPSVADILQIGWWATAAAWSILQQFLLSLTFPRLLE
T1 sequence (P54289 957-1103 partner limits assumed): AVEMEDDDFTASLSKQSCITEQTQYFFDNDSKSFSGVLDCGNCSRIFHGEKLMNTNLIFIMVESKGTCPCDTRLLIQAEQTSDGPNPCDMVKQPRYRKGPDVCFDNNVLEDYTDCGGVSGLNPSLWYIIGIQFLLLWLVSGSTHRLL
T1 sequence (P54284 whole entry partner): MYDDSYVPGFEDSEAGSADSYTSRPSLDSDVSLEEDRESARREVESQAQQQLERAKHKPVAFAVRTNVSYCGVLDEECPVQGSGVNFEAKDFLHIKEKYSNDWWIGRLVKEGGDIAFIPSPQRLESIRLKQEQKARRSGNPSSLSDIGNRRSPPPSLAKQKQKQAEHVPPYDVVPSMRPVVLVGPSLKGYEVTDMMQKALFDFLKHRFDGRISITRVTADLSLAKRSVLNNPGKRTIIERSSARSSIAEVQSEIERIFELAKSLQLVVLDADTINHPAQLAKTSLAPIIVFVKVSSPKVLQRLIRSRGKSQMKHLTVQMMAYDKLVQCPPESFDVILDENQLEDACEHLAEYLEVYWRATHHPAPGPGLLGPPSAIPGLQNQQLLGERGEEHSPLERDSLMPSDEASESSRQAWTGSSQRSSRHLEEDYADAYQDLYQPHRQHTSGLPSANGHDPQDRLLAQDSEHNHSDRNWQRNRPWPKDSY

| SMILES | IC50 |
| --- | --- |
| O=C(CCc1ccc(F)cc1)NOC1CCN(S(=O)(=O)c2cccc(C(F)(F)F)c2)CC1 [Example 5, 3-(4-Fluorophenyl)-N-(1-(3-(trifluoromethyl)phenylsulfonyl)piperidin-4-yloxy)propanamide] | 102 nM |
| N#Cc1cccc(C(=O)NOC2CCN(S(=O)(=O)c3cccc(C(F)(F)F)c3)CC2)c1 [Example 7, 3-Cyano-N-(1-(3-(trifluoromethyl)phenylsulfonyl)piperidin-4-yloxy)benzamide] | 575 nM |
| O=C(NOC1CCN(S(=O)(=O)c2cccc(C(F)(F)F)c2)CC1)C(c1ccccc1)c1ccccc1 [Example 9, 2,2-Diphenyl-N-(1-(3-(trifluoromethyl)phenylsulfonyl)piperidin-4-yloxy)acetamide] | 218 nM |
| O=C(NO[C@H]1CCN(S(=O)(=O)c2cccc(C(F)(F)F)c2)C1)c1ccc(F)cc1 [Example 16, (S)-4-Fluoro-N-(1-(3-(trifluoromethyl)phenylsulfonyl)pyrrolidin-3-yloxy)benzamide] | 1220 nM |
| O=C(NCCOc1ccc(F)cc1)NOC1CCN(S(=O)(=O)c2cccc(C(F)(F)F)c2)CC1 [Example 31, 1-(2-(4-Fluorophenoxy)ethyl)-3-(1-(3-(trifluoromethyl)phenylsulfonyl)piperidin-4-yloxy)urea] | 154 nM |
| CN(C(=O)NOC1CCN(S(=O)(=O)c2cccc(C(F)(F)F)c2)CC1)c1ccc(F)cc1 [Example 32, 1-(4-Fluorophenyl)-1-methyl-3-(1-(3-(trifluoromethyl)phenylsulfonyl)piperidin-4-yloxy)urea] | 560 nM |
| O=C(NOC1CCN(S(=O)(=O)c2ccc(OC(F)(F)F)cc2)CC1)NC1CCC1 [Example 55, 1-Cyclobutyl-3-(1-(4-(trifluoromethoxy)phenylsulfonyl)piperidin-4-yloxy)urea] | 290 nM |
| O=C(NCCC(F)(F)F)NOC1CCN(S(=O)(=O)c2ccc(OC(F)(F)F)cc2)CC1 [Example 67, 1-(1-(4-(Trifluoromethoxy)phenylsulfonyl)piperidin-4-yloxy)-3-(3,3,3-trifluoropropyl)urea] | 1490 nM |
| O=C(NO[C@H]1CCN(S(=O)(=O)c2cccc(C(F)(F)F)c2)C1)Nc1cc(C(F)(F)F)cc(C(F)(F)F)c1 [Example 86, (S)-1-(3,5-Bis(trifluoromethyl)phenyl)-3-(1-(3-(trifluoromethyl)phenylsulfonyl)pyrrolidin-3-yloxy)urea] | 705 nM |
| O=C(NOC1CCN(C(c2ccc(F)cc2)c2ccc(F)cc2)CC1)Nc1ccc(F)cc1 [Example 106, 1-(1-(Bis(4-fluorophenyl)methyl)piperidin-4-yloxy)-3-(4-fluorophenyl)urea] | 2580 nM |
